From article PMC9424909, “Rutin alleviated acrolein-induced cytotoxicity in Caco-2 and GES-1 cells by forming a cyclic hemiacetal product” (Frontiers in Nutrition, 2022)
Where “and” joins values, the source holds several entries; their conditions need not be identical. Equal values may be shown once. Read-outs that look alike come from different tables or passages of the source.

How the values were obtained:
[1] = in vitro simulated oral, gastric and intestinal digestion of RAC (HPLC); type: in vitro ADME
Procedure: The simulated oral, gastric, and intestinal digestion experiments of RAC were carried out according to Mamone et al. ([39]) with minor adjustments. One milliliter of RAC (1 mg/mL) was mixed with 4 mL SSF and stirred at 170 rpm for 2 min in lightproof condition to mimic the oral phase digestion. Based on the oral stage, 10 mL of SGF was added and reacted for another 2 h under the same condition to imitate the gastric phase digestion. To investigate the intestinal phase digestion, 20 mL of SIF was further added, and the mixture was stirred for another 2 h after simulated gastric digestion. For each stage, the same volume of deionized water was used in place of the corresponding digestive fluid as the control. At the end of each stage, 0.8 mL of the mixture was withdrawn and diluted with MeOH to 1.0 mL for HPLC analysis.
The standard curve of RAC was prepared as follows: one milligram of RAC was dissolved with MeOH to a final concentration of 1 mg/mL. The above solution was further used to prepare a series of RAC concentrations at 0.02, 0.04, 0.08, 0.2, and 1.0 mg/mL, respectively. The HPLC conditions for the determination of the content of RAC in the digestion mixture and the preparation of the standard curve of RAC were the same as those for the analysis of RAC, except that the detection wavelength was at 358 nm.

[2] = cell survival, CCK-8 assay; type: cell-based, human; settings: human; for viability at 24 h, 140 µM: incubation 24 h, read-out: cell viability (viable cell number); for IC50 at 48 h: read-out: IC50 (cytotoxicity)
Procedure: (§1) The Caco-2 cell line and GES-1 cell line were obtained from iCell Bioscience (Shanghai, China). As described by Chai et al. ([40]) with a bit modification, the Caco-2 cells were cultured within a medium composed of DMEM supplemented with 1% (v/v) NEAA, 10% (v/v) FBS, and penicillin and streptomycin (100 U/mL). GES-1 cells were cultivated according to Xu et al. ([41]) with slight modifications as follows: DMEM medium including 1% (v/v) NEAA, 10% (v/v) FBS, and penicillin and streptomycin (100 U/mL). Cells were all maintained in a humidified incubator containing 5% CO2 and 95% air at 37°C.
(§2) The effects of ACR and RAC on cell survival (both Caco-2 and GES-1 cells) were measured by the CCK-8 assay ([41]). Briefly, cells (1 × 10^4 cells/well) were seeded into a 96-well plate and cultivated overnight. […] After cells were rinsed twice with PBS and resuspended in 100 μL of DMEM supplemented with 10% FBS, 10 μL of CCK-8 solution was added into each well and the plate was maintained for 1 h in the incubator. The plate was read at 450 nm on a microplate reader (BioTek, Epoch 2, USA), and all experiments were performed thrice. Cell viability was expressed as a percentage of the control group as shown below:
(§3) Cell viability (%) = A sample/A control × 100%
(§4) Where A sample was the absorbance (Abs) of the cells incubated with different concentrations of sample solutions, and A control was the Abs of the cells incubated without sample solution.

Caco-2 cells [3] = experiment: cell survival, CCK-8 assay; type: cell-based, human; settings: Caco-2
Procedure: as §1, §2, §3, §4

GES-1 cells [4] = experiment: cell survival, CCK-8 assay; type: cell-based, human; settings: GES-1
Procedure: as §1, §2, §3, §4

Caco-2 cells [5] = experiment: apoptosis assay, Annexin-V FITC/PI flow cytometry; type: cell-based, human; settings: 24 h
Procedure: as §1
(§5) Cell apoptosis assay was conducted in refer to Abas et al. ([42]) with modifications. In short, cells at a density of 1 × 10^4 cells/well were seeded in 96-well plates and incubated overnight, followed by exposure to different concentrations of ACR and RAC for another 24 h. After that, cells were rinsed twice with PBS, resuspended in 200 μL of Annexin-binding buffer, and finally stained with Annexin-V FITC and PI (5 μL each) for 10 min at 37°C in darkness. After adding 400 μL of Annexin-binding buffer, the signal intensity was measured using a FACSCalibur (Becton Dickinson, CA, USA) flow cytometry within 1 h, and data was analyzed with FlowJo software (Ashland, OR, USA).

GES-1 cells [6] = experiment: apoptosis assay, Annexin-V FITC/PI flow cytometry; type: cell-based, human; settings: GES-1, 60 μM
Procedure: as §1, §5

Caco-2 cells [7] = experiment: JC-1 staining, mitochondrial membrane potential (MMP); type: cell-based, human; settings: 24 h
Procedure: as §1
(§6) After incubation with different concentrations of samples, the changes of MMP in Caco-2 and GES-1 cells were measured in accordance with Liu et al., with slight modifications ([43]). In brief, cells (1 × 10^4 cells/well) were exposed to different concentrations of ACR and RAC for 24 h, respectively. Then 500 μL of JC-1 staining solution was added into each well and the plate was further incubated at 37°C for 15 min. Cells were then rinsed twice with 1 mL of staining buffer and resuspended with 500 μL of staining buffer prior to MMP determination in the flow cytometry.

GES-1 cells [8] = experiment: as above; type: cell-based, human; settings: 24 h
Procedure: as §1, §6

[9] = incubating with equal concentrations of ACR for 12 h at 37°C ref 25; cited from earlier work
[10] = design: method as in PMID 19743801; settings: simulated physiological conditions ref 21; cited from earlier work

Compound: CC1OC(OCC2OC(Oc3c(-c4ccc(O)c(O)c4)oc4c5c(cc(O)c4c3=O)OC(O)CC5)C(O)C(O)C2O)C(O)C(O)C1O (racemic) [RAC]
- The amount of RAC ([1]; Initial): 2.99 ± 0.01 mg
- Decrease of RAC ([1]; SGF 30 min (gastric)): 16.39%
- The amount of RAC ([1]; SGF 30 min (gastric)): 2.50 ± 0.06 mg and 2.50 ± 0.06 a mg
- Decrease of RAC ([1]; SGF 60 min (gastric)): 16.05%
- The amount of RAC ([1]; SGF 60 min (gastric)): 2.51 ± 0.04 a mg
- The content of RAC ([1]; SGF 60 min (gastric)): 0.167 ± 0.0028 mg/mL
- Decrease of RAC ([1]; SGF 90 min (gastric)): 21.07%
- The amount of RAC ([1]; SGF 90 min (gastric)): 2.36 ± 0.04 b mg
- The content of RAC ([1]; SGF 90 min (gastric)): 0.157 ± 0.0029 mg/mL
- Decrease of RAC ([1]; SGF 120 min (gastric)): 24.41%
- The amount of RAC ([1]; SGF 120 min (gastric)): 2.26 ± 0.03 b mg
- Decrease of RAC ([1]; SIF 30 min (intestinal)): 13.38%
- The amount of RAC ([1]; SIF 30 min (intestinal)): 2.59 ± 0.01 a mg
- The content of RAC ([1]; SIF 30 min (intestinal)): 0.074 ± 0.0002 mg/mL
- Decrease of RAC ([1]; SIF 60 min (intestinal)): 14.72%
- The amount of RAC ([1]; SIF 60 min (intestinal)): 2.55 ± 0.01 b mg
- The content of RAC ([1]; SIF 60 min (intestinal)): 0.073 ± 0.0002 mg/mL
- Decrease of RAC ([1]; SIF 90 min (intestinal)): 14.38%
- The amount of RAC ([1]; SIF 90 min (intestinal)): 2.56 ± 0.01 b mg
- The content of RAC ([1]; SIF 90 min (intestinal)): 0.073 ± 0.0002 mg/mL
- Decrease of RAC ([1]; SIF 120 min (intestinal)): 16.39%
- The amount of RAC ([1]; SIF 120 min (intestinal)): 2.50 ± 0.01 mg and 2.50 ± 0.01 c mg
- The content of RAC ([1]; SIF 120 min (intestinal)): 0.072 ± 0.0004 mg/mL
- Decrease of RAC ([1]; SSF 2 min (oral)): 0.33%
- The amount of RAC ([1]; SSF 2 min (oral)): 2.98 ± 0.01 mg
- The content of RAC ([1]; SSF 2 min (oral)): 0.595 ± 0.0018 mg/mL
- viability at 24 h, 140 µM ([2]; Caco-2 cells, Caco-2, 140 μM): > 75%
- IC50 at 48 h ([2]; Caco-2 cells, Caco-2, CCK-8): > 140 µM
- viability at 24 h, 140 µM ([2]; GES-1 cells, GES-1, 140 μM): > 75%
- IC50 at 48 h ([2]; GES-1 cells, GES-1, CCK-8): > 140 µM
- viability of RAC-treated cells, fold higher than ACR-treated cells (Caco-2 cells [3]): 10 fold
- viability of RAC-treated cells, fold higher than ACR-treated cells (GES-1 cells [4]): 6.5 fold
- apoptotic cells (Caco-2 cells [5]; Caco-2, 20 μM): 8.3%
- apoptotic cells (Caco-2 cells [5]; Caco-2, 60 μM): 10.81%
- apoptotic rate, fold below the 60 μM ACR-treated group (GES-1 cells [6]): 5.4 fold
- apoptotic rate (GES-1 cells [6]; 24 h): 12.59%
- ratio of red/green fluorescence intensity (Caco-2 cells [7]; Caco-2, 20 μM): 17.64 ± 0.69
- ratio of red/green fluorescence intensity (Caco-2 cells [7]; Caco-2, 40 μM): 15.16 ± 0.59
- ratio of red/green fluorescence intensity (Caco-2 cells [7]; Caco-2, 60 μM): 9.47 and 9.47 ± 0.37
- ratio of red/green fluorescence intensity (GES-1 cells [8]; GES-1, 20 μM): 13.32 ± 0.43
- ratio of red/green fluorescence intensity (GES-1 cells [8]; GES-1, 40 μM): 10.59 ± 0.33
- ratio of red/green fluorescence intensity (GES-1 cells [8]; GES-1, 60 μM): 6.72 and 6.72 ± 0.30

Compound: COc1ccc([C@@H]2CC(=O)c3c(O)cc(O)cc3O2)cc1O [hesperetin]
- ACR eliminated [9]: 94.87%

Compound: O=C(CCc1ccc(O)cc1)c1c(O)cc(O)cc1O [phloretin]
- ACR quenched [10]: more than 99%
